Measurements taken from ChEMBL document CHEMBL5107956, “Natural products from mangrove sediments-derived microbes: Structural diversity, bioactivities, biosynthesis, and total synthesis” (Eur J Med Chem, 2022).
≈ marks a conversion by molar mass, not a printed value.

Legend:
[1] = target: Angiotensin-converting enzyme (Homo sapiens, UniProt P12821); assay: Inhibition of ACE (unknown origin) using hippuryl-histidyl-leucine as substrate pre-incubated with compound for 10 mins followed by substrate addition measured after 60 mins by HPLC analysis
Sequence of Angiotensin-converting enzyme (P12821 whole entry): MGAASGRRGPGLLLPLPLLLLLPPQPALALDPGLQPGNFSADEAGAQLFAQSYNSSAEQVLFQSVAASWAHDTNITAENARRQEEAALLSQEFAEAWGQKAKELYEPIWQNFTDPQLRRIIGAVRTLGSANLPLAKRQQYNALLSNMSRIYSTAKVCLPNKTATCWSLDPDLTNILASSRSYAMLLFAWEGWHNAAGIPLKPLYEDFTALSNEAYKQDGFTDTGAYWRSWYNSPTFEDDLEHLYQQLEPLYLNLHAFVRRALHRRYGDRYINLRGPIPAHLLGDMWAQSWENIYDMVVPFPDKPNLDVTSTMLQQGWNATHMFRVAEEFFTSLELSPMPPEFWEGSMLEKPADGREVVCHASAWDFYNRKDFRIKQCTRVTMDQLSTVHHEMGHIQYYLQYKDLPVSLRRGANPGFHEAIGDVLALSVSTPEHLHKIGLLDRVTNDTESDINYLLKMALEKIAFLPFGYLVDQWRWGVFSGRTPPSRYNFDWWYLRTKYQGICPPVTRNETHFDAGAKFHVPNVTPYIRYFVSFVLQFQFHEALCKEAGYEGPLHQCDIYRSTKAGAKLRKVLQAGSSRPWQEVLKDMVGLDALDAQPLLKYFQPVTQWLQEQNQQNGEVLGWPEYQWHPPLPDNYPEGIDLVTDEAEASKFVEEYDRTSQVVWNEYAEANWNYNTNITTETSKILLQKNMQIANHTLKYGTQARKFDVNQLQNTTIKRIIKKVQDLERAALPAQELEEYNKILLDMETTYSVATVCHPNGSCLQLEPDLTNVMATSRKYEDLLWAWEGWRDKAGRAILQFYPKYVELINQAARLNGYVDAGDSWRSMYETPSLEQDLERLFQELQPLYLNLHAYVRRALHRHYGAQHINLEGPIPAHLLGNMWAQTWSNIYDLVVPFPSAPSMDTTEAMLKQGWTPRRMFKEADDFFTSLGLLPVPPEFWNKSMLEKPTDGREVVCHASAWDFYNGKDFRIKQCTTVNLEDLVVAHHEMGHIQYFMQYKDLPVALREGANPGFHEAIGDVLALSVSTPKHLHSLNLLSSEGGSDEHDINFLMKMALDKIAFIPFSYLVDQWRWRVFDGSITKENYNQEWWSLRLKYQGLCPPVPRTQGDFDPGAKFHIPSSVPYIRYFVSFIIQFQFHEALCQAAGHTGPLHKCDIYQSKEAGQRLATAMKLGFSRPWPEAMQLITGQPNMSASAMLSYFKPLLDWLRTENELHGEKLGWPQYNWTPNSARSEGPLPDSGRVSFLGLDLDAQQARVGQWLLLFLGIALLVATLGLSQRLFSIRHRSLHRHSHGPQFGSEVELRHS

A549 [2] = assay: Cytotoxicity against human A549 cells assessed as cell growth inhibition incubated for 48 hrs by CCK-8 assay; format: functional, cell-based; settings: A549, 48 h
HCT-116 = assay: Cytotoxicity against human HCT-116 cells assessed as cell growth inhibition incubated for 48 hrs by CCK-8 assay; format: functional, cell-based; settings: HCT-116, 48 h
Staphylococcus aureus = assay: Antibacterial activity against Staphylococcus aureus ATCC 25923 assessed as bacterial growth inhibition; format: functional, organism-based
[3] = system: Pseudopestalotiopsis theae; assay: Antifungal activity against Pestalotiopsis theae assessed as fungal cell growth inhibition; format: functional; settings: read-out: ED50 (the source's name)
[4] = Antioxidant activity assessed as free radical scavenging activity incubated for 30 mins under dark condition by microplate reader analysis; format: functional
HL-60 = assay: Cytotoxicity against human HL-60 cells assessed as cell growth inhibition measured after 72 hrs by MTT assay; format: functional, cell-based; settings: HL-60, 72 h
A549 [5] = assay: Cytotoxicity against human A549 cells assessed as cell growth inhibition measured after 72 hrs by MTT assay; format: functional, cell-based; settings: A549, 72 h
P388 = assay: Cytotoxicity against mouse P388 cells assessed as cell growth inhibition measured after 72 hrs by MTT assay; format: functional, cell-based; settings: Mus musculus, P388, 72 h
[6] = Toxicity in brine shrimp assessed as induction of lethality; settings: artemia salina; read-out: LD50 (the source's name)
[7] = Antiproliferative activity against human Pancreatic cancer cell assessed as cell growth inhibition measured after 24 hrs by CCK-8 assay; format: functional, cell-based
[8] = Antioxidant activity assessed as free radical scavenging activity incubated for 30 mins by microplate reader analysis; format: functional
[9] = system: Colletotrichum gloeosporioides; assay: Antifungal activity against Colletotrichum gloeosporioides assessed as inhibition of fungal growth measured after 72 hrs by micro plate reader analysis; format: functional
SGC-7901 = assay: Cytotoxicity against human SGC-7901 cells assessed as cell growth inhibition measured after 48 hrs by MTT assay; format: functional, cell-based; settings: SGC-7901, 48 h
MCF7 [10] = assay: Cytotoxicity against human MCF7 cells assessed as cell growth inhibition; format: functional, cell-based
[11] = Cytotoxicity against human HM02 cells assessed as cell growth inhibition; format: functional
HepG2 [12] = assay: Cytotoxicity against human HepG2 cells assessed as cell growth inhibition; format: functional
HeLa = assay: Cytotoxicity against human HeLa cells assessed as cell growth inhibition by MTT assay; format: functional, cell-based
A-375 = assay: Cytotoxicity against human A-375 cells assessed as cell growth inhibition by MTT assay; format: functional, cell-based
A549 [13] = assay: Cytotoxicity against human A549 cells assessed as cell growth inhibition by MTT assay; format: functional, cell-based
HepG2 [14] = assay: Cytotoxicity against human HepG2 cells assessed as cell growth inhibition by MTT assay; format: functional, cell-based
MCF7 [15] = assay: Cytotoxicity against human MCF7 cells assessed as cell growth inhibition by MTT assay; format: functional, cell-based
[16] = target: Rho-associated protein kinase 2 (Homo sapiens, UniProt O75116); assay: Inhibition of ROCK2 (unknown origin) by HTRF kinase assay
Sequence of Rho-associated protein kinase 2 (O75116 whole entry): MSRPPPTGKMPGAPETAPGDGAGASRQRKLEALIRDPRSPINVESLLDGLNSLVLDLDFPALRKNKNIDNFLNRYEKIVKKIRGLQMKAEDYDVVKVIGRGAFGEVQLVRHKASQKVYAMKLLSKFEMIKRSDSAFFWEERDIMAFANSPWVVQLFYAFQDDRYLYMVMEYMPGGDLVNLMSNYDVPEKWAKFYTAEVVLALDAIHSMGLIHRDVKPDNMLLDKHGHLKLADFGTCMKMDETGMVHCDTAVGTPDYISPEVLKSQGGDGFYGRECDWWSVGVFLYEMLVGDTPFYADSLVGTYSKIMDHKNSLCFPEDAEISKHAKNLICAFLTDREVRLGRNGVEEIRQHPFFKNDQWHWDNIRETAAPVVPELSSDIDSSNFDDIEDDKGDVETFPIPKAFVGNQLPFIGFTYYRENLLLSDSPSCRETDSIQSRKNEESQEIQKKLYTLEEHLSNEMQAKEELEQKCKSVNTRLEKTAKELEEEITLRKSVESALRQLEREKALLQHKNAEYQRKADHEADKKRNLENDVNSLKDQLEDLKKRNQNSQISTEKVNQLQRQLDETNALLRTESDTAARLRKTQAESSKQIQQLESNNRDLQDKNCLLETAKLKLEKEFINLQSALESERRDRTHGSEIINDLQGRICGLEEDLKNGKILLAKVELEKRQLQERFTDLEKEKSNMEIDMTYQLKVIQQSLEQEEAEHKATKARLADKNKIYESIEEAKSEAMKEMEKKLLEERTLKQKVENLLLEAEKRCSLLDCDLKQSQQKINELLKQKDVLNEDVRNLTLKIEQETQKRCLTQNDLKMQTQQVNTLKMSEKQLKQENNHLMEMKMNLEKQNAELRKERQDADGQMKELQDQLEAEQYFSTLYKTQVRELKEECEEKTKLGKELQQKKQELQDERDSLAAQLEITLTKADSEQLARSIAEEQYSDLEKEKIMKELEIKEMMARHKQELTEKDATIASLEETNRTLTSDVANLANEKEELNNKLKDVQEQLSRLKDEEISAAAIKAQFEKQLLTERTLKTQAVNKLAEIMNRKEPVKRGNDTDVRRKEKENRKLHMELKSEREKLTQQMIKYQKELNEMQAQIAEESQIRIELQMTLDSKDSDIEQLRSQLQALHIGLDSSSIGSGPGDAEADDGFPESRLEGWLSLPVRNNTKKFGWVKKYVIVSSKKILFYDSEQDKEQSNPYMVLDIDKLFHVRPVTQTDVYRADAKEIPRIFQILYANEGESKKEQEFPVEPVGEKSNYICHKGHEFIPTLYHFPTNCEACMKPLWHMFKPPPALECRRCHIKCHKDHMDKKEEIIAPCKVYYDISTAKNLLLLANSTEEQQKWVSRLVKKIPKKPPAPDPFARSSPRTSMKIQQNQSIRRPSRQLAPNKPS

OS-RC-2 = assay: Antiproliferative activity against human OS-RC-2 cells assessed as cell growth inhibition measured after 72 hrs by CCK-8 assay; format: functional, cell-based; settings: OS-RC-2, 72 h
[17] = target: Prostaglandin G/H synthase 2 (Homo sapiens) (UniProt P35354); assay: Inhibition of COX2 (unknown origin) at 20 nM relative to control
Sequence of Prostaglandin G/H synthase 2 (Homo sapiens) (P35354 whole entry, looked up): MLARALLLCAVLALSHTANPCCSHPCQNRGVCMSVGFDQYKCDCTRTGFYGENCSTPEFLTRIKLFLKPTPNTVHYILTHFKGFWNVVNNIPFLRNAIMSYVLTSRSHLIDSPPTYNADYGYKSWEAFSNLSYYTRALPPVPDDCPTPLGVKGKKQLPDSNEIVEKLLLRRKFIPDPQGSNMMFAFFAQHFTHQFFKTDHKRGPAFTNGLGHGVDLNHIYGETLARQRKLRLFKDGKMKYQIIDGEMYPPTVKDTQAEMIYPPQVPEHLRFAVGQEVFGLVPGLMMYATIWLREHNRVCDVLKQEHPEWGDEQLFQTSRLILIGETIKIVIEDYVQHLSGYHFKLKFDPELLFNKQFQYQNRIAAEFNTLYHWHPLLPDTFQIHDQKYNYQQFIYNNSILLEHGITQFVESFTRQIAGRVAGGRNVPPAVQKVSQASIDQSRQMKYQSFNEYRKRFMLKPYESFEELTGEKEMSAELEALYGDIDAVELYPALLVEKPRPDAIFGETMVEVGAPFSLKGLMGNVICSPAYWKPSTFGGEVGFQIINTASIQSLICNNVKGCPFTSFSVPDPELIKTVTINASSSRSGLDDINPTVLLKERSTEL

## CC(=O)C[C@@]1(O)C(=O)C2=C3O[C@H](C)C(C)(C)[C@]3(O)C(=O)c3c(C)cc(O)c(c32)C1=O
[1]
  IC50: 3.1 µM

## C[C@@H]1O[C@@H](Oc2ccc3c(c2)OCC(c2ccc(O)cc2)C3=O)C[C@H](O)[C@@H]1O (stereo partly specified)
A549 [2]
  IC50: 13.5 µg/mL (≈ 34.9 µM)
HCT-116
  IC50: 13.5 µg/mL

## O=C1OC(Cc2ccc(O)cc2)C(c2ccc(O)cc2)C1O (stereo unspecified)
Staphylococcus aureus
  IC50: 17.4 µM

## CC(=C\C(=O)O)/C=C(\C)CC(C)/C=C/CC[C@H]1OC(=O)[C@@H]1CO (stereo partly specified)
[3]
  EC50: 38.1 µg/mL (≈ 118 µM)

## C/C=C/C=C/CCc1c(O)ccc(O)c1COC
[4]
  IC50: 17.6 µM

## CC1(C)C=Cc2c(ccc3c4c(n(O)c23)C(C)(C)[C@H]2C[C@]35CCCN3C(=O)[C@@]2(C4)NC5=O)O1
HL-60
  IC50: 4.45 µM
A549 [5]
  IC50: 1.88 µM

## C=CC(C)(C)c1[nH]c2ccccc2c1/C=C1\NC(=O)[C@]2(C[C@H](C)C=C[C@@H]2CCc2c(O)cc(CC=C(C)C)c(O)c2C=O)NC1=O (stereo in doubt; 251)
P388
  IC50: 3.43 µM

## CC(=O)C[C@]1(O)C(=O)C2=C3O[C@H](C)C(C)(C)[C@]3(O)C(=O)c3c(C)cc(O)c(c32)C1=O
[1]
  IC50: 11.3 µM

## CCCCC[C@@H]1Cc2cc(O)cc(O)c2C(=O)O1
[6]
  LC50: 36.4 µg/mL (≈ 145 µM)

## CC1(C)C=Cc2c(ccc3c2[N+]([O-])=C2C3=C[C@@]34NC(=O)[C@]5(CCCN5C3=O)C[C@@H]4C2(C)C)O1
HL-60
  IC50: 3.02 µM
A549 [5]
  IC50: 1.92 µM

## COC(C)[C@H]1[C@H]2[C@H](C[C@H]1C)[C@H]1C[C@H]3/C=C/C(=O)C4=C(O)[C@@H](CCCNC(=O)/C=C\C[C@@H]3[C@H]1[C@@H]1O[C@@H]12)NC4=O (stereo partly specified)
[7]
  IC50: 1.3 µM

## CCC/C=C/[C@@H]1Cc2cc(O)c(C)c(O)c2C(=O)O1
[6]
  LC50: 18.6 µg/mL (≈ 70.9 µM)

## C=CC(C)(C)c1[nH]c2ccccc2c1/C=C1\NC(=O)[C@@]2(C[C@@H](C)C=C[C@@H]2/C=C/c2c(O)cc(CC=C(C)C)c(O)c2C=O)NC1=O
P388
  IC50: 11.3 µM

## O=C(NCCCCO)c1ccc(O)c(O)c1
[8]
  IC50: 4.7 µM

## C=C1CCC(C(C)C)C2/C=C(\C(=O)OC)CC/C=C(/C(=O)O)C(O)CC12 (stereo unspecified)
HCT-116
  IC50: 38.4 µM

## CC(=O)O[C@@H]1C[C@H](C)[C@@]23CC=C(C)[C@H](C2)C[C@@](C)(O)[C@@H]13
[9]
  MIC: 0.125 µg/mL (≈ 0.449 µM)

## C/C=C/C=C/CCc1c(O)ccc(O)c1CO
[4]
  IC50: 9.3 µM

## CC[C@H]1/C=C/C[C@H](CC(C)C)OC(=O)/C(C)=C\[C@@H]2C(=O)NC3=CC(=O)c4c(cc(C)c(O)c4C(=O)CC1)[C@@]32O
SGC-7901
  IC50: 4.7 µM

## CCCCC[C@@H]1Cc2cc(O)c(C)c(O)c2C(=O)O1
[6]
  LC50: 7.7 µg/mL (≈ 29.1 µM)

## CC[C@H](C)CCC[C@H]1CCCCC(=O)O1
MCF7 [10]
  GI50: 0.11 µg/mL (≈ 0.518 µM)
[11]
  GI50: 0.11 µg/mL (≈ 0.518 µM)
HepG2 [12]
  GI50: 0.11 µg/mL (≈ 0.518 µM)

## CCC(=O)OCc1c(OCC=C(C)C)c(C)cc(OC)c1C(=O)c1c(O)ccc2c1OC(C)(C)C=C2
HeLa
  IC50: 9.2 µM

## COc1ccc(C[C@@H]2NC(=O)[C@@]34OC(=O)O/C=C/[C@@](C)(O)C(=O)[C@@H](C)C/C=C/[C@H]3C(O)C(C)=C(C)[C@@H]24)cc1 (stereo partly specified)
A-375
  IC50: 0.47 µM
A549 [13]
  IC50: 0.47 µM
HepG2 [14]
  IC50: 0.47 µM
MCF7 [15]
  IC50: 0.47 µM

## CCOC(=O)[C@]1(Cc2ccc(O)c(CC3OC3(C)C)c2)OC(=O)C(O)C1c1ccc(O)cc1 (stereo partly specified)
Staphylococcus aureus
  IC50: 21.3 µM

## CCOC(=O)[C@@H](Cc1c(O)cc(C)c2c(O)c3c(cc12)[C@@H](O)CCC3=O)C(=O)OC
[16]
  IC50: 0.96 µM

## C=C(C(C)=O)[C@H](O)[C@H](C)/C=C(C)/C=C/C/C(C)=C/Cc1nc(OC)c(OC)c(O)c1C
OS-RC-2
  IC50: 2.2 µM

## O=C(CNC(=O)c1ccccc1-n1c(=O)[nH]c2ccccc2c1=O)c1ccccc1
[17]
  inhibition: > 65%

## O=C1O/C(=C\c2ccc(O)cc2)C(O)=C1c1ccc(O)cc1 [ASPULVINONE E]
Staphylococcus aureus
  IC50: 26.1 µM

## CC1=CC(=O)[C@H]2C(C)(C)CCC[C@]2(C)[C@@]1(O)C=O
P388
  IC50: 8.7 µM
